From ChEMBL document CHEMBL1201862, “PubChem BioAssay data set” (2004)
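Test compounds were applied to cells in 96-well plates for 48 hours at 5 doses. GI50 = concentration required for 50% inhibition of growth.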 The source made the active and inactive calls. No stated cut-off is given here; in the data, active = GI50 up to about 1.1 µM and inactive = higher.

Tests used:
Test in all cases: NCI-60 cell line screen, 48 h
[1] = system: MDA-MB-435
[2] = system: HOP-92
[3] = system: A549
[4] = system: OVCAR-3
[5] = system: M14
[6] = system: Hs-578T
[7] = system: HCT-15
[8] = system: HOP-62
[9] = system: ACHN
[10] = system: HCT-116
[11] = system: SF-268
[12] = system: TK-10
[13] = system: U-251
[14] = system: COLO 205
[15] = system: Malme-3M
[16] = system: UACC-62
[17] = system: SNB-75
[18] = system: HT-29
[19] = system: NCI-H226
[20] = system: HCC 2998

Row | Structure (SMILES) | GI50 [1] | GI50 [2] | GI50 [3] | GI50 [4] | GI50 [5] | GI50 [6] | GI50 [7] [µM] | GI50 [8] | GI50 [9] | GI50 [10] | GI50 [11] | GI50 [12] | GI50 [13] | GI50 [14] | GI50 [15] | GI50 [16] | GI50 [17] | GI50 [18] | GI50 [19] | GI50 [20]
1 | O=C1/C(=C/c2ccc(Cl)c(Cl)c2)CNC/C1=C\c1ccc(Cl)c(Cl)c1 | 20.9 µM (inactive) | 22 µM (inactive) | 14.8 µM (inactive) | 3.89 µM (inactive) | 15.8 µM (inactive) | 3.21 µM (inactive) | 2.94 | 14.5 µM (inactive) | 18.1 µM (inactive) | 2.57 µM (inactive) | 3.95 µM (inactive) | 31 µM (inactive) | 5.11 µM (inactive) | 5.27 µM (inactive) | 28.1 µM (inactive) | 14 µM (inactive) | 10.8 µM (inactive) | 5.35 µM (inactive) | 21.9 µM (inactive) | 9.66 µM (inactive)
2 | NS(=O)(=O)c1ccc(NCc2cnc3ccccc3c2)cc1 | > 100 µM (inactive) | 49.8 µM (inactive) | > 100 µM (inactive) | > 100 µM (inactive) | > 100 µM (inactive) | 51.8 µM (inactive) | > 100 | > 100 µM (inactive) | > 100 µM (inactive) | > 100 µM (inactive) | 39.8 µM (inactive) | > 100 µM (inactive) | > 100 µM (inactive) | > 100 µM (inactive) | > 100 µM (inactive) | > 100 µM (inactive) | > 100 µM (inactive) | > 100 µM (inactive) | > 100 µM (inactive) | > 100 µM (inactive)
3 | Nc1ncnc2nn(C3OC(CO)C(O)C3O)nc12 (stereo not given) | 9.1 µM (inactive) | 20 µM (inactive) | 9.16 µM (inactive) | 7.57 µM (inactive) | 6.82 µM (inactive) | 31.5 µM (inactive) | 5.62 | 14 µM (inactive) | 3.67 µM (inactive) | 7.87 µM (inactive) | 20.4 µM (inactive) | 3.56 µM (inactive) | 23.1 µM (inactive) | 5.06 µM (inactive) | 20.5 µM (inactive) | 25.4 µM (inactive) | 9.77 µM (inactive) | 8.81 µM (inactive) | 5.36 µM (inactive) | 7.6 µM (inactive)
4 | COc1ccc2c(c1O)[C@@]13CCCC=C1[C@@H](C2)[N+](C)(C)CC3 | > 100 µM (inactive) | > 100 µM (inactive) | > 100 µM (inactive) | 37.2 µM (inactive) | > 100 µM (inactive) | 77.3 µM (inactive) | > 100 | > 100 µM (inactive) | > 100 µM (inactive) | > 100 µM (inactive) | > 100 µM (inactive) | > 100 µM (inactive) | > 100 µM (inactive) | 43.6 µM (inactive) | > 100 µM (inactive) | > 100 µM (inactive) | 77.6 µM (inactive) | > 100 µM (inactive) | > 100 µM (inactive) | > 100 µM (inactive)
5 | CCOC(=O)c1oc2cc3c(c4c2c1-c1ccccc1N4C)C=CC(C)(C)O3 | 52.1 µM (inactive) | 3.72 µM (inactive) | 24.5 µM (inactive) | 9.59 µM (inactive) | 40.2 µM (inactive) | 19.9 µM (inactive) | 50.4 | 6.84 µM (inactive) | 8.89 µM (inactive) | 14.2 µM (inactive) | 13.5 µM (inactive) | 7.1 µM (inactive) | 7.5 µM (inactive) | > 65.3 µM (inactive) | 12 µM (inactive) | 11.9 µM (inactive) | 12.6 µM (inactive) | 9.51 µM (inactive) | 16.8 µM (inactive) | 65.3 µM (inactive)
6 | [N-]=[N+]=NC1C(O)C(CO)OC1n1ccc(=O)[nH]c1=O (stereo not given) | > 875 µM (inactive) | > 875 µM (inactive) | > 875 µM (inactive) | > 875 µM (inactive) | > 875 µM (inactive) | > 875 µM (inactive) | > 875 | > 875 µM (inactive) | > 875 µM (inactive) | > 875 µM (inactive) | > 875 µM (inactive) | > 875 µM (inactive) | > 875 µM (inactive) | > 875 µM (inactive) | > 875 µM (inactive) | > 875 µM (inactive) | > 875 µM (inactive) | > 875 µM (inactive) | > 875 µM (inactive) | > 875 µM (inactive)
7 | Cc1c(NC(=S)N/N=C\C(=N/NC(=S)Nc2c(C)n(C)n(-c3ccccc3)c2=O)c2ccccc2)c(=O)n(-c2ccccc2)n1C | > 100 µM (inactive) | > 100 µM (inactive) | > 100 µM (inactive) | > 100 µM (inactive) | > 100 µM (inactive) | > 100 µM (inactive) | > 100 | > 100 µM (inactive) | > 100 µM (inactive) | > 100 µM (inactive) | > 100 µM (inactive) | > 100 µM (inactive) | > 100 µM (inactive) | > 100 µM (inactive) | 87.1 µM (inactive) | > 100 µM (inactive) | > 100 µM (inactive) | > 100 µM (inactive) | > 100 µM (inactive) | > 100 µM (inactive)
8 | O=C1N/C(=N/N=C/C(O)C(O)C(O)C(O)CO)N/C1=C\c1cccs1 (stereo not given) | > 100 µM (inactive) | > 100 µM (inactive) | 94.4 µM (inactive) | > 100 µM (inactive) | > 100 µM (inactive) | > 100 µM (inactive) | > 100 | > 100 µM (inactive) | > 100 µM (inactive) | > 100 µM (inactive) | > 100 µM (inactive) | > 100 µM (inactive) | > 100 µM (inactive) | > 100 µM (inactive) | > 100 µM (inactive) | > 100 µM (inactive) | > 100 µM (inactive) | > 100 µM (inactive) | > 100 µM (inactive) | > 100 µM (inactive)
9 | c1cc(-c2ccc(-c3ccc(C4=NC5CCCCC5N4)cc3)o2)ccc1C1=NC2CCCCC2N1 (stereo not given) | 1.86 µM (inactive) | 1.43 µM (inactive) | 1.71 µM (inactive) | 1.85 µM (inactive) | 1.64 µM (inactive) | 1.55 µM (inactive) | 5.19 | 1.5 µM (inactive) | 2.36 µM (inactive) | 1.51 µM (inactive) | 1.55 µM (inactive) | 5.19 µM (inactive) | 1.44 µM (inactive) | 1.5 µM (inactive) | 1.73 µM (inactive) | 1.71 µM (inactive) | 1.68 µM (inactive) | 1.39 µM (inactive) | 1.85 µM (inactive) | 1.3 µM (inactive)
10 | COc1cc(CC2CC(c3ccc4c(c3)OCO4)OC2=O)cc(OC)c1OC (stereo not given) | > 100 µM (inactive) | 13.6 µM (inactive) | > 100 µM (inactive) | 49.5 µM (inactive) | > 100 µM (inactive) | > 100 µM (inactive) | > 100 | > 100 µM (inactive) | > 100 µM (inactive) | > 100 µM (inactive) | > 100 µM (inactive) | > 100 µM (inactive) | > 100 µM (inactive) | > 100 µM (inactive) | 61.1 µM (inactive) | 52.5 µM (inactive) | > 100 µM (inactive) | > 100 µM (inactive) | > 100 µM (inactive) | > 100 µM (inactive)
11 | COc1ccc2nc3cc(Cl)ccc3c(NCCNCCCNC(=O)c3cc(-c4ccccc4)nc4ccccc34)c2c1 | 30.1 µM (inactive) | > 100 µM (inactive) | > 100 µM (inactive) | 54.7 µM (inactive) | > 100 µM (inactive) | > 100 µM (inactive) | > 100 | > 100 µM (inactive) | > 100 µM (inactive) | > 100 µM (inactive) | > 100 µM (inactive) | > 100 µM (inactive) | > 100 µM (inactive) | > 100 µM (inactive) | 97.5 µM (inactive) | > 100 µM (inactive) | > 100 µM (inactive) | 22.6 µM (inactive) | > 100 µM (inactive) | > 100 µM (inactive)
12 | CN(C)CCCOC(=O)C(c1ccccc1)C1(O)CCSCC1 (stereo not given) | > 100 µM (inactive) | > 100 µM (inactive) | > 100 µM (inactive) | > 100 µM (inactive) | > 100 µM (inactive) | > 100 µM (inactive) | > 100 | > 100 µM (inactive) | > 100 µM (inactive) | > 100 µM (inactive) | > 100 µM (inactive) | > 100 µM (inactive) | > 100 µM (inactive) | > 100 µM (inactive) | > 100 µM (inactive) | > 100 µM (inactive) | 87.1 µM (inactive) | > 100 µM (inactive) | 79.1 µM (inactive) | > 100 µM (inactive)
13 | COc1ccc2c(c1)CCC(CN1CCN(CCOC(c3ccc(F)cc3)c3ccc(F)cc3)CC1)C2O (stereo not given) | 16 µM (inactive) | 12.2 µM (inactive) | 16.3 µM (inactive) | 14.9 µM (inactive) | 12.2 µM (inactive) | 15.4 µM (inactive) | 10.4 | 16.1 µM (inactive) | 5.93 µM (inactive) | 11.1 µM (inactive) | 13.9 µM (inactive) | 15 µM (inactive) | 13.3 µM (inactive) | 4.59 µM (inactive) | 14.4 µM (inactive) | 11.5 µM (inactive) | 16.8 µM (inactive) | 5.09 µM (inactive) | 16 µM (inactive) | 3.49 µM (inactive)
14 | COC(=O)[C@@]12C(=O)C=CC(=O)[C@@H]1C1C(=CC2COC(C)=O)O[C@@H]2OC3(CCCCC3)O[C@H]12 (stereo not given in full) | 16.2 µM (inactive) | 8.49 µM (inactive) | 14.5 µM (inactive) | 6.37 µM (inactive) | 15.6 µM (inactive) | 9.46 µM (inactive) | 5.66 | 19.8 µM (inactive) | 9.04 µM (inactive) | 5.69 µM (inactive) | 14.2 µM (inactive) | 8.38 µM (inactive) | 15.6 µM (inactive) | 5.77 µM (inactive) | 15.7 µM (inactive) | 12.9 µM (inactive) | 13 µM (inactive) | 6.01 µM (inactive) | 17.2 µM (inactive) | 16.1 µM (inactive)
